Data taken from ChEMBL document CHEMBL1159134, “Heterocyclic guanidines as calcium antagonists” (Bioorg Med Chem Lett, 1994).
Where “and” joins values, the source holds several entries; their conditions need not be identical. Equal values may be shown once.

Tests used:
[1] = Calcium channel-blocking effect was assessed in potassium ion depolarized guinea pig ileum strips by recording the contractile responses produced by varying concentrations of calcium chloride; assay type: functional, tissue-based; conditions: Cavia porcellus, read-out: pA2 (converted)
[2] = target: T1, Voltage-dependent L-type calcium channel subunit alpha-1C (Rattus norvegicus, UniProt P22002); experiment: Binding of [3H]nitrendipine to calcium channel in rat heart membranes was determined; assay type: cell membranes, Membrane
T1 sequence (P22002 whole entry): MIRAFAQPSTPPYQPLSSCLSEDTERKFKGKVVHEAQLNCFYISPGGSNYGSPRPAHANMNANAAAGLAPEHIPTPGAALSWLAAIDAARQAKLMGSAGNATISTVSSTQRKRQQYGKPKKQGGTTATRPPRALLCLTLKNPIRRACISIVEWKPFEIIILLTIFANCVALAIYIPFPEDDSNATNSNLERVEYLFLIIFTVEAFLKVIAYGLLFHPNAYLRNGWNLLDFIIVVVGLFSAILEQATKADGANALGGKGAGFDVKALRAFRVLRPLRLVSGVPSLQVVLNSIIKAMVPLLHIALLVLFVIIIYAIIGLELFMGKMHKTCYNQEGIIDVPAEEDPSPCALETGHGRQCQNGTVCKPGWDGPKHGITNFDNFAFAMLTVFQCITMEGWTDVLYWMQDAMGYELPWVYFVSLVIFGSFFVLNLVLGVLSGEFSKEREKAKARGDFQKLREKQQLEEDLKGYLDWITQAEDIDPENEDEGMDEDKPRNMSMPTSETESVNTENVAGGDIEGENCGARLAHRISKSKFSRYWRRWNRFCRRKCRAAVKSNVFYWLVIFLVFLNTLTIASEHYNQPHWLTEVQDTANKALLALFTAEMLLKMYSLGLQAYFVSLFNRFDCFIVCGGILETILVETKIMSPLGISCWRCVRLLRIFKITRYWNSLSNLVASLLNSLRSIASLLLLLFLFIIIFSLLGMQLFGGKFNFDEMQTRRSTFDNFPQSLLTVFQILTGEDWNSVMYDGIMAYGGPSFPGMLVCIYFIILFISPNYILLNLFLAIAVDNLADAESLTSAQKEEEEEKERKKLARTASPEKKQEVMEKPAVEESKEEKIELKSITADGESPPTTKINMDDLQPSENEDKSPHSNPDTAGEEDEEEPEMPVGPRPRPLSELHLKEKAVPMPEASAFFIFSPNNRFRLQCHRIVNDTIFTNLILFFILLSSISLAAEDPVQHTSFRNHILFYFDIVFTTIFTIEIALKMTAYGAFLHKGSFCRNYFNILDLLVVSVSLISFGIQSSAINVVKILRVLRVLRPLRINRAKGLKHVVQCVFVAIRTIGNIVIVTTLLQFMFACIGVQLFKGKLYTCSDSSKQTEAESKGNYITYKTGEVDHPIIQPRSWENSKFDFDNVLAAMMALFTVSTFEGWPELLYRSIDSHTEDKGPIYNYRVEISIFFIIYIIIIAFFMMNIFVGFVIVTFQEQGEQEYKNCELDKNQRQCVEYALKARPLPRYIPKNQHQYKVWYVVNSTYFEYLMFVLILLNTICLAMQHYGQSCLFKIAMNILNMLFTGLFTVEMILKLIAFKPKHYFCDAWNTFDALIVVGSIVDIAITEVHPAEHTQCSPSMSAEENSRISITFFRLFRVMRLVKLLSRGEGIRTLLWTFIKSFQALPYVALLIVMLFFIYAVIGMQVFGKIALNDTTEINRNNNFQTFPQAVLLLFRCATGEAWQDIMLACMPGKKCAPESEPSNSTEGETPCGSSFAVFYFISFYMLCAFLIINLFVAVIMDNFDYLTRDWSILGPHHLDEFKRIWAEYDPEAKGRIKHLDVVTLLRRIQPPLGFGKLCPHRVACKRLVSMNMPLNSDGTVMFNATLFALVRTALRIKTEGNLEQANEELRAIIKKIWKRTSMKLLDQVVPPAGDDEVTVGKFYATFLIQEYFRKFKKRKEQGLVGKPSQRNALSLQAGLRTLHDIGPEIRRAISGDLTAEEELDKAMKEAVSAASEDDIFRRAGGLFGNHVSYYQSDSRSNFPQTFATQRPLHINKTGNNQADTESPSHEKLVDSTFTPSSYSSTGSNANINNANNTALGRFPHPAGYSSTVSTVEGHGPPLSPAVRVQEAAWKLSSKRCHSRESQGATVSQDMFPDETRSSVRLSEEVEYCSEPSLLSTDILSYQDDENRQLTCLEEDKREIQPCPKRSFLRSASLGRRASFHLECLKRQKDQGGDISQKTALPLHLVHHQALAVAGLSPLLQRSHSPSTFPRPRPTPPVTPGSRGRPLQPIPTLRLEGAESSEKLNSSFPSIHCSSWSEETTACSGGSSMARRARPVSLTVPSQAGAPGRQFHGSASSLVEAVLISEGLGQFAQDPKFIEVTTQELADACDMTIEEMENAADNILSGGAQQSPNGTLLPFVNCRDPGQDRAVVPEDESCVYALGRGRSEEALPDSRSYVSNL

[3] = target: Voltage-gated L-type calcium channel (Rattus norvegicus, UniProt P22002+Q02485+P27732); experiment: Binding of [3H]nitrendipine to calcium channel in rat cerebral cortex; assay type: tissue-based
[4] = target: T1, Voltage-dependent L-type calcium channel subunit alpha-1C; experiment: Binding of [3H]nitrendipine to calcium channel in rat heart membranes; assay type: cell membranes, Membrane

Structure (SMILES) | IC50 [2] [nM] | EC50 [3] [nM] | EC50 [4] | Kb [1] [nM]
CN1CCCN=C1NCC(c1ccccc1)c1ccccc1 | > 1000 | – | – | 1100
CCCC(CN/C1=N/CCCCCCCCCCC1)(c1ccccc1)c1ccccc1 | > 1000 | 61 | 34 nM | 53.7
COc1ccc([C@@H]2Sc3ccccc3N(CCN(C)C)C(=O)[C@@H]2OC(C)=O)cc1 [DILTIAZEM] | – | – | – | 41.7
c1ccc(C(CNC2=N[C@H]3CCCC[C@@H]3N2)c2ccccc2)cc1 | > 1000 | – | – | 141
CN1CCN=C1NCC(c1ccccc1)c1ccccc1 | > 1000 | – | – | 1860
c1ccc(C(CNC2=NCCCCCN2)c2ccccc2)cc1 | > 1000 | – | – | 251
c1ccc(C(CNC2=NCCCCN2)c2ccccc2)cc1 | > 1000 | – | – | 550
CN1CCN=C1NCCCC(c1ccccc1)c1ccccc1 | > 1000 | – | – | 170
c1ccc([C@@H]2CCC[C@@H]2N/C2=N/CCCCCCCCCCC2)cc1 | – | – | 61 nM and 34 nM | –
c1ccc(C(NC2=NCCN2)c2ccccc2)cc1 | > 1000 | – | – | 2510
c1ccc(C(CCNC2=N[C@H]3CCCC[C@@H]3N2)c2ccccc2)cc1 | > 1000 | – | – | 132

Now from value to compound, other results behind:

IC50 [2] [nM] | EC50 [3] [nM] | EC50 [4] | Structure (SMILES) | Kb [1] [nM]
> 1000 | – | – | CN1CCN=C1NCCC(c1ccccc1)c1ccccc1 | 257
> 1000 | – | – | c1ccc(C(CCNC2=NCCCCN2)c2ccccc2)cc1 | 240
> 1000 | – | – | c1ccc(C(CNC2=NCc3ccccc3CN2)c2ccccc2)cc1 | 81.3
> 1000 | – | – | c1ccc(C(CNC2=NCCCN2)c2ccccc2)cc1 | 776
> 1000 | – | – | c1ccc(C(CNC2=NCCN2)c2ccccc2)cc1 | 676
> 1000 | – | – | c1ccc(C(CCN/C2=N/CCCCCN2)c2ccccc2)cc1 | 37.2
> 1000 | – | – | c1ccc(C(CCNC2=NCCCN2)c2ccccc2)cc1 | 34.7
> 1000 | – | – | c1ccc(C(CCNC2=NCCN2)c2ccccc2)cc1 | 57.5
> 1000 | – | – | CN1CCCN=C1NCCC(c1ccccc1)c1ccccc1 | 240
> 1000 | – | – | c1ccc(C(CCNC2=NCc3ccccc3CN2)c2ccccc2)cc1 | 50.1
